Measured values reported in PubChem BioAssay (NCI).
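The concentration for 50% growth inhibition is given as GI50. The concentration for full growth arrest is given as TGI.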

Legend:
Assay in all cases: inhibition of tumour cell growth, NCI panel, 384-well format
T-47D breast = test system: T-47D breast
HOP-92 NSCLC = test system: HOP-92 NSCLC
OVCAR-4 ovarian = test system: OVCAR-4 ovarian
A549 NSCLC = test system: A549 NSCLC
PC-3 prostate = test system: PC-3 prostate
RPMI-8226 leukemia = test system: RPMI-8226 leukemia
NCI-H322M lung = test system: NCI-H322M lung
COLO 205 colon = test system: COLO 205 colon
MOLT-4 leukemia = test system: MOLT-4 leukemia
MDA-MB-435 melanoma = test system: MDA-MB-435 melanoma
IGROV1 ovarian = test system: IGROV1 ovarian
UO-31 renal = test system: UO-31 renal
HL-60(TB) leukemia = test system: HL-60(TB) leukemia
SNB-75 CNS = test system: SNB-75 CNS
HT29 colon = test system: HT29 colon
TK-10 renal = test system: TK-10 renal
NCI-H226 lung = test system: NCI-H226 lung
NCI-H460 NSCLC = test system: NCI-H460 NSCLC
UACC-257 melanoma = test system: UACC-257 melanoma
CCRF-CEM leukemia = test system: CCRF-CEM leukemia
MCF7 breast = test system: MCF7 breast
SK-MEL-5 melanoma = test system: SK-MEL-5 melanoma
SK-MEL-28 melanoma = test system: SK-MEL-28 melanoma
ACHN renal = test system: ACHN renal
SF-268 CNS = test system: SF-268 CNS
LOX IMVI melanoma = test system: LOX IMVI melanoma
NCI-H522 lung = test system: NCI-H522 lung
MDA-MB-231 breast = test system: MDA-MB-231 breast
DU-145 prostate = test system: DU-145 prostate
HCC-2998 colon = test system: HCC-2998 colon
SF-539 CNS = test system: SF-539 CNS
NCI/ADR-RES ovarian = test system: NCI/ADR-RES ovarian
HCT-15 colon = test system: HCT-15 colon
CAKI-1 renal = test system: CAKI-1 renal
MDA-MB-468 breast = test system: MDA-MB-468 breast
M14 melanoma = test system: M14 melanoma
A498 renal = test system: A498 renal
HS 578T breast = test system: HS 578T breast
KM12 colon = test system: KM12 colon
EKVX NSCLC = test system: EKVX NSCLC
K-562 leukemia = test system: K-562 leukemia
786-0 renal = test system: 786-0 renal
SN12C renal = test system: SN12C renal
SNB-19 CNS = test system: SNB-19 CNS
SR leukemia = test system: SR leukemia
NCI-H23 lung = test system: NCI-H23 lung

## COc1cc(OC)c(F)c(COc2cnc(Nc3cnn(CCO)c3)nc2)c1F
T-47D breast
  GI50: 810 nM
  TGI: > 100000 nM
HOP-92 NSCLC
  GI50: 747 nM
  TGI: 4740 nM
OVCAR-4 ovarian
  GI50: 8520 nM
  TGI: > 100000 nM
A549 NSCLC
  GI50: 1270 nM
  TGI: > 100000 nM
PC-3 prostate
  GI50: 1250 nM
  TGI: > 100000 nM
RPMI-8226 leukemia
  GI50: 307 nM
  TGI: 1240 nM
NCI-H322M lung
  GI50: 1790 nM
  TGI: > 100000 nM
COLO 205 colon
  GI50: 454 nM
  TGI: 3210 nM
MOLT-4 leukemia
  GI50: 187 nM
  TGI: 356 nM
MDA-MB-435 melanoma
  GI50: 177 nM
  TGI: 411 nM
IGROV1 ovarian
  GI50: 536 nM
  TGI: > 100000 nM
UO-31 renal
  GI50: 844 nM
  TGI: > 100000 nM
HL-60(TB) leukemia
  GI50: 140 nM
  TGI: 272 nM
SNB-75 CNS
  GI50: 140 nM
  TGI: 467 nM
HT29 colon
  GI50: 343 nM
  TGI: 1070 nM
TK-10 renal
  GI50: 714 nM
  TGI: > 100000 nM
NCI-H226 lung
  GI50: 260 nM
  TGI: 2290 nM
NCI-H460 NSCLC
  GI50: 353 nM
  TGI: 1000 nM
UACC-257 melanoma
  GI50: 2120 nM
  TGI: > 100000 nM
CCRF-CEM leukemia
  GI50: 204 nM
  TGI: 397 nM
MCF7 breast
  GI50: 408 nM
  TGI: > 100000 nM
SK-MEL-5 melanoma
  GI50: 383 nM
  TGI: 1580 nM
SK-MEL-28 melanoma
  GI50: 741 nM
  TGI: > 100000 nM
ACHN renal
  GI50: 1020 nM
  TGI: > 100000 nM
SF-268 CNS
  GI50: 491 nM
  TGI: 3680 nM
LOX IMVI melanoma
  GI50: 485 nM
  TGI: 3820 nM
NCI-H522 lung
  GI50: 257 nM
  TGI: 658 nM
MDA-MB-231 breast
  GI50: 657 nM
  TGI: > 100000 nM
DU-145 prostate
  GI50: 1600 nM
  TGI: > 100000 nM
HCC-2998 colon
  GI50: 751 nM
  TGI: > 100000 nM
SF-539 CNS
  GI50: 340 nM
  TGI: 1500 nM
NCI/ADR-RES ovarian
  GI50: 442 nM
  TGI: 1830 nM
HCT-15 colon
  GI50: 386 nM
  TGI: > 100000 nM
CAKI-1 renal
  GI50: 353 nM
  TGI: 1650 nM
MDA-MB-468 breast
  GI50: 234 nM
  TGI: 514 nM
M14 melanoma
  GI50: 239 nM
  TGI: 709 nM
A498 renal
  GI50: 355 nM
  TGI: > 100000 nM
HS 578T breast
  GI50: 226 nM
  TGI: 672 nM
KM12 colon
  GI50: 327 nM
  TGI: 3410 nM
EKVX NSCLC
  GI50: 828 nM
  TGI: > 100000 nM
K-562 leukemia
  GI50: 264 nM
  TGI: 1100 nM
786-0 renal
  GI50: 425 nM
  TGI: > 100000 nM
SN12C renal
  GI50: 1180 nM
  TGI: 6330 nM
SNB-19 CNS
  GI50: 681 nM
  TGI: > 100000 nM
SR leukemia
  GI50: 41.1 nM
  TGI: 165 nM
NCI-H23 lung
  GI50: 494 nM
  TGI: 2240 nM
